Values after ≈ are worked out from the molar mass of the structure shown.
Tests used:
[1] = test system: normal human skin melanocyte cell line (HFB4); assay: Cytotoxic MTT assay, normal HFB4 cells; type: cell-based; conditions: 48 h treatment
Protocol: MTT protocol was performed to study the viability of cells after treatment with the tested compounds. The studied cell lines (A549 and HCT116) were cultured and grown in RPMI‐1640 media, while HFB4 cells were reserved in DMEM‐F12 media. Both media were supplemented with 10% FBS, 1% L‐glutamine, and 1% antibiotic–antimycotic mixture. The cell lines were grown at conditions of 37 °C and 5% CO2. 10 × 10^3 of A549, and HCT116 cells and the same count of normal melanocytes (HFB4) were cultured in a 96‐well plate. The selected cultured cells were kept at 37°C and 5% CO2 overnight. Then, the medium was discarded after 24 h of incubation, and 100 µL from different concentrations of the studied compounds dissolved in fresh medium without serum, with final concentrations of 100, 50, 25, 12.5, 6.25, 3.125, 1.56, and 0.78 µg/mL was added. The treated cells were then incubated for 48 h. After that, 50 µL of MTT was added into each well for 4 h for the formazan crystals to be formed. Finally, 200 µl of 10% sodium dodecyl sulphate (SDS) was added to each well, and plates were kept at room temperature overnight to allow the reaction to be stopped. The optical density at 575 nm was read using a microplate multi-well reader, and the percentage of cell viability was calculated. The dose–response curve was drawn to calculate the IC50 values for each compound using the prism GraphPad 5 program, [84]. 5 Fluorouracil, a commercial anticancer drug was used as a reference drug (positive control). Negative untreated cell control was used in this assay.

Bax = assay: RT-PCR gene expression, Bax, in HCT116; type: cell-based, human; conditions: HCT116, 6.76 µg/mL, 48 h, relative to untreated control
Protocol: (§1) In this current research, relative gene expression related to apoptosis should be studied well because they were very interesting to understand the effect of our selected compound on this important biological process. HCT116 cells were treated with chalcone 7f (6.76µg/mL) for 48 h, and then subjected to qPCR analysis regarding control samples. The effect of chalcone 7f on the expression level of (Bax, p53, Bcl2, and CDK4) genes was assessed using the qPCR technique. […] As indicated in this schematic diagram, the expression of apoptotic genes (Bax and P53) was enhanced by the effect of chalcone 7f to reach (3.662, and 5.435) respectively, relative to the control.
(§2) Total RNA was extracted from the compound 7f-treated HCT116 cells and the untreated cells using the RNA Purification Kit GeneJET (Thermo scientific, ON, Canada) 0.1 µg of the extracted RNA was reverse transcribed into complementary DNA (cDNA) using High-Capacity cDNA Reverse Transcription Kit (Thermo Scientific, ON, Canada). qPCR was done using Brilliant SYBR Green qPCR master mix (Applied Biosystems, San Francisco, CA, USA) in One Step Plus Real-Time PCR System (Applied Biosystems, San Francisco, CA, USA). […] The relative gene expression was determined using the 2^−ΔΔCt equation after normalization to the expression of β-actin (housekeeping gene) (Qiagen, CA, USA)(10 pmol/µL)[85], [86]. […]

CDK4 = assay: RT-PCR gene expression, CDK4, in HCT116; type: cell-based, human; conditions: HCT116, 6.76 µg/mL, 48 h, relative to untreated control
Protocol: as §1, §2

Human caspase-3 = assay: ELISA caspase 3 production in HCT116; type: cell-based; conditions: HCT116, 7f at its IC50 value
Protocol: Apoptosis is known and identified by specific characterizations in which the activation of caspases plays an important role. In apoptotic pathways, mechanisms of (activation/inactivation) of these proteins are not fully understood. The significance of understanding the mechanistic machinery that controls programmed cell death, being initiated by various chemotherapeutic agents is very critical and attracts the attention of researchers in this area. In this assay, cells were incubated in the absence or presence of 7f with varying concentrations (39, 78, 156, 313, 625, 1250, and 2500 ng/ml), inducing a concentration-dependent increase in caspase3 production in HCT116. […] A concentration of 7f was used at its IC50 value and compared directly to the control. […] However, there was only 103.5 pg/ml induced by control cells. It was interesting to note that chalcone 7f stimulated the production of caspase 3 protein in HCT116 cells 4.8-fold compared to control as outlined in Fig. 7.
The quantitative measurements of Human caspases-3, -8, and -9 concentrations in HCT116 cell culture lysates were performed using ELISA assay. […] All readings were measured immediately at a wavelength of 450 nm. From the readings of the standards, a standard curve was plotted using curve fitting software. Then, the concentrations for unknown samples and controls were measured from the standard curve.

Human caspase-8 = assay: ELISA caspase 8 production in HCT116; type: cell-based
Protocol: The production of caspase 8 was determined using various concentrations of 7f in a concertation-dependent manner. There was a gradual increase in the caspase 8 production level using the following concentrations (0.156, 0.312, 0.625, 1.25, 2.5, 5, and 10 ng/ml). The maximal increase in caspase 8 production was achieved by using 7f concentrations between 5 and 10 ng/ml (Fig. 8).
The quantitative measurements of Human caspases-3, -8, and -9 concentrations in HCT116 cell culture lysates were performed using ELISA assay. The protocols were followed up based on the manuscript instructions described in the following kits; Invitrogen human Caspase-3 Elisa Kit, Catalog # KHO1091, DRG® human Caspase-8 ELISA Kit, Catalog # (EIA-4863), and DRG® human Caspase-9 ELISA Kit, Catalog # (EIA-4860)respectively. In short, the procedure described in the above protocols was as instructed; all reagents, standards, and samples were prepared. Then, 100 μL of standard or samples were added to each well and incubated at room temperature for 2 h. Afterward, 100 μL of the prepared antibody (anti-rabbit-IgG-HRP) was added to all wells for 1 h at room temperature. […] All readings were measured immediately at a wavelength of 450 nm. From the readings of the standards, a standard curve was plotted using curve fitting software. Then, the concentrations for unknown samples and controls were measured from the standard curve.

N#C/C(=C\c1cn(-c2ccccc2)nc1-c1ccc([N+](=O)[O-])cc1)C(=O)c1c[nH]c2ccccc12 [Compound 7f, (E)-2-(1H-Indole-3-carbonyl)-3-(3-(4-nitrophenyl)-1-phenyl-1H-pyrazol-4-yl)acrylonitrile]
IC50 [1]: 56.7 µg/mL (≈ 123 µM)
RT-PCR fold change Bax (Bax): 3.662 fold
RT-PCR fold change CDK4 (CDK4): 0.454 fold
caspase 3 production, fold compared to control (Human caspase-3): 4.8 fold
caspase 3 protein production (Human caspase-3; control cells 103.5 pg/ml): 504.1 pg/mL
caspase 8 production, fold increase (Human caspase-8; HCT116 treated with 7f versus untreated): 3.788 fold
caspase 8 production level (Human caspase-8; HCT116 treated with 7f, untreated 0.2914 ng/ml): 1.104 ng/mL

— PMC10728220, “Novel 3-(pyrazol-4-yl)-2-(1H-indole-3-carbonyl)acrylonitrile derivatives induce intrinsic and extrinsic apoptotic death mediated P53 in HCT116 colon carcinoma” (Scientific Reports, 2023)
